# Measurements from ChEMBL document CHEMBL1201862, “PubChem BioAssay data set” (2004).
# The source made the active and inactive calls. Rule as the data show it, for most assays here: active = IC50 of 10 µM or less and inactive = more.
# Key:
# Format in all cases: functional
# [1] = biological target: T1, Kappa-type opioid receptor (Homo sapiens, UniProt P41145); assay: SAR analysis of small molecule antagonists of the kappa opioid receptor via a luminescent beta-arrestin assay - Set 6. [Related pubchem assays (depositor defined):AID1777, AID1778, AID1785, AID1786, AID1966, AID2133, AID2136, AID2285]
# [2] = biological target: T1, Kappa-type opioid receptor; assay: SAR analysis of small molecule antagonists of the kappa opioid receptor via a luminescent beta-arrestin assay - Set 3. [Related pubchem assays (depositor defined):AID1777, AID1778, AID1785, AID1786, AID1966, AID2133, AID2136, AID2285, AID2495]
# [3] = biological target: Delta-type opioid receptor (Homo sapiens, UniProt P41143); assay: SAR Analysis of Antagonists of the DOR Receptor using an Image-Based Assay - Set 3. [Related pubchem assays (depositor defined):AID1777, AID1785];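 also: U2OS cells expressing DOR1 and beta-arrestin GFP stimulated with 100 nM SNC80; imaging of GFP-tagged beta-arrestin moving into spots after receptor activation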
# [4] = biological target: T1, Kappa-type opioid receptor; assay: SAR analysis of Antagonists of the Kappa Opioid Receptor (KOR) using an Image-Based Assay - Set 4. [Related pubchem assays (depositor defined):AID1777, AID1785]
# Mu-type opioid receptor = Mu-type opioid receptor (Homo sapiens, UniProt P35372); assay: SAR Analysis of Antagonists of the MOR Receptor using an Image-Based Assay - Set 3. [Related pubchem assays (depositor defined):AID1777, AID1785, AID1786, AID1966, AID2133, AID2136, AID2284, AID2285, AID2420]
# Mu-type opioid receptor, sequence (P35372 whole entry): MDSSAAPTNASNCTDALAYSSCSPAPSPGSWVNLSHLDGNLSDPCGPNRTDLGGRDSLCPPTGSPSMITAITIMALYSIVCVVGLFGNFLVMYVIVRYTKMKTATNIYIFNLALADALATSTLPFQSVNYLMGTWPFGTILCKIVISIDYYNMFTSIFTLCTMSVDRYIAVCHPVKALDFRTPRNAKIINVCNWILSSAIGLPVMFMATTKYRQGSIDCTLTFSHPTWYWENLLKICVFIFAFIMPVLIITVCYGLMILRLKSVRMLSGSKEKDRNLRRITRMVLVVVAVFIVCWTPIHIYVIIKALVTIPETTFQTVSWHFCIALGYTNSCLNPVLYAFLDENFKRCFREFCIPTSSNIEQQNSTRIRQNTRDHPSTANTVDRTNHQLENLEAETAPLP
# T1 sequence (P41145 whole entry): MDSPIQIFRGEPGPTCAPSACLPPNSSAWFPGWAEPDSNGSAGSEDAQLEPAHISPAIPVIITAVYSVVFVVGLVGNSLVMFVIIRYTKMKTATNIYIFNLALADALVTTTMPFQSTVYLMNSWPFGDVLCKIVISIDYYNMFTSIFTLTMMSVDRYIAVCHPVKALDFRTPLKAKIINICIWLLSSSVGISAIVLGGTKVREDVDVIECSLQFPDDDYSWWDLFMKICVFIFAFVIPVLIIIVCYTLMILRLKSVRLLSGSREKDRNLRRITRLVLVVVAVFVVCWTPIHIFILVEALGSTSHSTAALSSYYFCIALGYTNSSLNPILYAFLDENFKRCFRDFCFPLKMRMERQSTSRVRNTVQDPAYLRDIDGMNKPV
# Delta-type opioid receptor, sequence (P41143 whole entry): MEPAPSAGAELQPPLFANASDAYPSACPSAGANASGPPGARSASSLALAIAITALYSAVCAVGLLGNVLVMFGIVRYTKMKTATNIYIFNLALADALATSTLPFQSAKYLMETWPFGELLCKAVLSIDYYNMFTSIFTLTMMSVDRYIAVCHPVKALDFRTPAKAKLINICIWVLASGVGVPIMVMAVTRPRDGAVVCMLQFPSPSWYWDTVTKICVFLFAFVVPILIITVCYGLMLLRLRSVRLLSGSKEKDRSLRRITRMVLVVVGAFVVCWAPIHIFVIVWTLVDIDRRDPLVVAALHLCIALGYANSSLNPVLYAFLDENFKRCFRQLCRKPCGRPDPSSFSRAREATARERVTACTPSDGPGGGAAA
smiles,measurement,setting,value
Cc1ccnc2c1n1cccc1c(=O)n2CC(=O)NCCCN1CCN(c2ccc(Cl)cc2)CC1,IC50,[1],1.01 µM (active)
same,IC50,[2],0.363 µM (active)
same,IC50,[3],> 32 µM (inactive)
same,IC50,[4],0.0696 µM (active)
same,IC50,Mu-type opioid receptor,> 32 µM (inactive)
